Laboratory results: patent publication US20250313553A1, “ANNULATED 2-AMINO-3-CYANO THIOPHENES AND DERIVATIVES FOR THE TREATMENT OF CANCER” (Boehringer Ingelheim Int'l GmbH Corp., priority 2021, published 2025)

Columns and labels:
NCI-H358 cells = assay: NCI-H358 CTG proliferation assay (120 h), assay 2; assay type: cell-based; conditions: Homo sapiens, 384-well, 200 cells per well
Experimental: NCI-H358 cells (ATCC No. CRL-5807) are dispensed into white bottom opaque 96 well plates (Perkin Elmer cat no. 5680) at a density of 2000 cells per well in 100 μL RPMI-1640 ATCC-Formulation (Gibco #A10491)+10% FCS (fetal calf serum) (assay 1) or into black 384-well plates, flat and clear bottom (Greiner, PNr. 781091) at a density of 200 cells per well in 60 μl RPMI-1640 ATCC-Formulation (Gibco #A10491)+10% FCS (fetal calf serum) (assay 2). […] Compounds (10 mM stock in DMSO) are added at logarithmic dose series using the HP Digital Dispenser D300 (Tecan) (assay 1) or the ECHO acoustic liquid handler system (Beckman Coulter) (assay 2), normalizing for added DMSO and including DMSO controls. For the T0 time point measurement, untreated cells are analyzed at the time of compound addition. Plates are incubated for 120 h, and cell viability is measured using CellTiter-Glo luminescent cell viability reagent (Promega product code G7570). Viability (stated as percent of control) is defined as relative luminescence units RLU of each well divided by the RLU of cells in DMSO controls. IC50 values are determined from viability measurements by non-linear regression using a four-parameter model.

AsPC-1 cells = assay: AsPC-1 CTG proliferation assay (120 h); assay type: cell-based; conditions: Homo sapiens, ASPC1, pancreatic cancer, G12D
Experimental: The CTG assay is designed to measure quantitatively the proliferation of AsPC-1 cells (ATCC […]), using the CellTiter Glow Assay Kit (Promega G7571). Cells are grown in RPMI medium (ATCC) supplemented with Fetal Calf Serum (Life Technologies, Gibco BRL, Cat. No. 10270-106). On “day 0” 2000 AsPC-1 cells are seeded in 60 μL RPMI ATCC+10% FCS+Penstrep in a 384-well plate, flat and clear bottom (Greiner, PNr. 781091). Cells are then incubated in the plates at 37° C. in a CO2 incubator overnight. On day 1, compounds (10 mM stock in DMSO) are added with the ECHO acoustic liquid handler system (Beckman Coulter), including DMSO controls. Plates are incubated for 120 h, and cell viability is measured using CellTiter-Glo luminescent cell viability reagent (Promega product code G7570). Viability (stated as percent of control) is defined as relative luminescence units RLU of each well divided by the RLU of cells in DMSO controls. IC50 values are determined from viability measurements by non-linear regression using a four-parameter model.

SAS cells = assay: SAS CTG proliferation assay (120 h); assay type: cell-based; conditions: HNSCC, wt amplified
Experimental: (§1) SAS cells (JCRB0260) are dispensed into 384-well plates, flat and clear bottom (Greiner, PNr. 781091) at a density of 300 cells per well in 60 μL DMEM:F12 (Gibco 31330-038)+10% Fetal Calf Serum (HyClone, PNr.: SH30084.03) and incubated at 37° C. in a CO2 incubator overnight. The next day, compounds (10 mM stock in DMSO) are added with the ECHO acoustic liquid handler system (Beckman Coulter), including DMSO controls. Plates are incubated for 120 h, and cell viability is measured using CellTiter-Glo luminescent cell viability reagent (Promega product code G7570). Viability (stated as percent of control) is defined as relative luminescence units RLU of each well divided by the RLU of cells in DMSO controls. IC50 values are determined from viability measurements by non-linear regression using a four-parameter model.

SK-CO-1 cells = assay: SK-CO-1 CTG proliferation assay (120 h); assay type: cell-based; conditions: Homo sapiens, CRC, G12V
Experimental: as §1, with “SK-CO-1 cells (ATCC” for “SAS cells (JCRB0260)”, “SK-CO-1 cells (ATCC HTB-39) are dispensed” for “SAS cells (JCRB0260) are dispensed”, “density of 500 cells per” for “density of 300 cells per”, “60 μL EMEM (Sigma M5650)+10% Fetal Calf” for “60 μL DMEM:F12 (Gibco 31330-038)+10% Fetal Calf”

LOVO cells = assay: LOVO CTG proliferation assay (120 h); assay type: cell-based; conditions: Homo sapiens, CRC, G13D
Experimental: as §1, with “LOVO cells (ATCC” for “SAS cells (JCRB0260)”, “LOVO cells (ATCC CCL-229) are dispensed” for “SAS cells (JCRB0260) are dispensed”, “density of 1000 cells per” for “density of 300 cells per”, “60 μL DMEM (Sigma D6429)+10% Fetal Calf” for “60 μL DMEM:F12 (Gibco 31330-038)+10% Fetal Calf”

[1] = Plasma protein binding assay (PPB), equilibrium dialysis; assay type: in vitro ADME; conditions: bovine, 10% FCS in PBS, read-out: PPB 10% FCS (% fu)
Experimental: Binding of test compounds to plasma was determined using equilibrium dialysis (ED) and quantitative mass spectrometry interfaced with liquid chromatography (LC-MS). In brief, ED was performed with dialysis devices consisting of two chambers separated by a semipermeable membrane with a molecular weight cut-off of 5-10 kg/mol. One chamber was filled with 10% FCS in PBS containing 1-10 μmol/L test compound and the other chamber was filled with phosphate-buffer saline (PBS) with or without dextran. The dialysis chamber was incubated for 3-5 hours at 37° C. After incubation, protein was precipitated from aliquots of each chamber and the concentration of test compound in the supernatant of the plasma-containing compartment (cserum) and of the buffer-containing compartment (cbuffer) was determined by LC-MS. The fraction of unbound test compound (not bound to plasma) (fu) was calculated according to the following equation: […]

CC(C)N1CCCN(c2nccc(-c3noc([C@@]4(C)CCCc5sc(N)c(C#N)c54)n3)n2)[C@@H](C)C1 [Example V-9]
IC50 (NCI-H358 cells): 1.19 µM

C[C@H](Oc1ccnc(-c2noc([C@@]3(C)CCCc4sc(N)c(C#N)c43)n2)n1)[C@@H]1CCCN1C [Example V-11]
IC50 (NCI-H358 cells): 0.244 µM | IC50 (AsPC-1 cells): 3.7 µM | IC50 (SAS cells): 3.33 µM | IC50 (SK-CO-1 cells): 0.737 µM | IC50 (LOVO cells): 0.193 µM | fraction unbound [1]: 0.61

C[C@H](Oc1cccc(-c2noc([C@@]3(C)CCCc4sc(N)c(C#N)c43)n2)n1)[C@@H]1CCCN1C [Example V-8]
IC50 (NCI-H358 cells): 0.23 µM | IC50 (AsPC-1 cells): 3.95 µM | IC50 (SAS cells): 3.1 µM | IC50 (SK-CO-1 cells): 6.65 µM | IC50 (LOVO cells): 1.43 µM | fraction unbound [1]: 0.51

C[C@H]1CN(C)CCN1c1cccc(-c2noc([C@@]3(C)CCCc4sc(N)c(C#N)c43)n2)n1 [Example V-1]
IC50 (NCI-H358 cells): 0.937 µM | IC50 (AsPC-1 cells): 7.24 µM | IC50 (SAS cells): 8.02 µM | IC50 (SK-CO-1 cells): 4.8 µM | IC50 (LOVO cells): 8.47 µM | fraction unbound [1]: 0.21
